According to patent US8871753B2, “Macrocyclic compounds and their use as kinase inhibitors” (Incyte Corporation, priority 2008, dated 2014):
Where a name gives a salt, the structure may show the parent alone. Read-outs that look alike come from different tables or passages of the source.

Tests used:
Type in all cases: biochemical
[1] = target: T1, human JAK1 (a.a. 837-1142) (Homo sapiens, UniProt P23458); experiment: In vitro JAK kinase assay (HTRF, phosphorylation of a biotinylated peptide), JAK1; settings: read-out: JAK1 IC50
T1 construct: human JAK1 (a.a. 837-1142); His tag (N); made in house; host or cells: insect cells (baculovirus)
T1 sequence (P23458 849-1154): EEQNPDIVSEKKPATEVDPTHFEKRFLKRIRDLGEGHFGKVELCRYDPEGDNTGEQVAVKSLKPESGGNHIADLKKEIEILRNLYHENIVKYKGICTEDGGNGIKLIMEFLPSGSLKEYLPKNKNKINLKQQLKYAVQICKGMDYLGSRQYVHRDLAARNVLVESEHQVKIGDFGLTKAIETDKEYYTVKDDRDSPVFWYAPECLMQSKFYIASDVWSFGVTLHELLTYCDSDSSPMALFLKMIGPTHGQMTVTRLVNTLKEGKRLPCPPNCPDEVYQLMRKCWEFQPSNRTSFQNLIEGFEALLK
Method in brief: (§1)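 Kinase activity was measured as phosphorylation of a biotinylated peptide, with ATP at 90 μM for JAK1, 30 μM for JAK2 and 3 μM for JAK3. Reactions ran 1 hr at room temperature, were stopped with EDTA plus SA-APC and Eu-Py20, and were read by HTRF after 40 minutes of antibody binding.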

[2] = target: T2, human JAK2 (a.a. 828-1132) (Homo sapiens, UniProt O60674); experiment: In vitro JAK kinase assay (HTRF, phosphorylation of a biotinylated peptide), JAK2
T2 construct: JAK2 (a.a. 828-1132); His tag (N); made in house; host or cells: insect cells (baculovirus)
T2 sequence (O60674 828-1132): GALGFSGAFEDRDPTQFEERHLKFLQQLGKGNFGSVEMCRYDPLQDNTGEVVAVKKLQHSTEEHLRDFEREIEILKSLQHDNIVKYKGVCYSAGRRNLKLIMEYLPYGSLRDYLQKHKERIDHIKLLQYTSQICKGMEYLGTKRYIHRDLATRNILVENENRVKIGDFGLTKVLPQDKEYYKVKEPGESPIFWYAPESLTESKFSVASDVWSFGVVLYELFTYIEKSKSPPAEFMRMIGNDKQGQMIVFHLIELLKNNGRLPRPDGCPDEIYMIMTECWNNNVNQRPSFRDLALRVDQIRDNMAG
Method in brief: as §1

[3] = target: T3, human JAK3 (a.a. 781-1124) (Homo sapiens, UniProt P52333); experiment: In vitro JAK kinase assay (HTRF, phosphorylation of a biotinylated peptide), JAK3
T3 construct: JAK3 (a.a. 781-1124); His tag (N); made in house; host or cells: insect cells (baculovirus)
T3 sequence (P52333 781-1124): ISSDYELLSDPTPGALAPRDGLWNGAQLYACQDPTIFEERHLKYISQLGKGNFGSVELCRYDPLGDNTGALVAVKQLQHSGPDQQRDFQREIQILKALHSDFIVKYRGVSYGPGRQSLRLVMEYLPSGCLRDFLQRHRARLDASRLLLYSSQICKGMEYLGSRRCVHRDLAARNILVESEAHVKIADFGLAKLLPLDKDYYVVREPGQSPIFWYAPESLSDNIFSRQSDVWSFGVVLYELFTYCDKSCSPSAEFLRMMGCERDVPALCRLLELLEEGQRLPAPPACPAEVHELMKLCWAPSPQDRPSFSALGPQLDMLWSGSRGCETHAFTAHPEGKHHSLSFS
Method in brief: as §1

[4] = target: T4, Recombinant Human Anaplastic Lymphoma Kinase (Homo sapiens, UniProt Q9UM73); experiment: ALK HTRF kinase assay
T4 construct: purchased Invitrogen, Carlsbad, Calif
T4 sequence (Q9UM73 19-1620): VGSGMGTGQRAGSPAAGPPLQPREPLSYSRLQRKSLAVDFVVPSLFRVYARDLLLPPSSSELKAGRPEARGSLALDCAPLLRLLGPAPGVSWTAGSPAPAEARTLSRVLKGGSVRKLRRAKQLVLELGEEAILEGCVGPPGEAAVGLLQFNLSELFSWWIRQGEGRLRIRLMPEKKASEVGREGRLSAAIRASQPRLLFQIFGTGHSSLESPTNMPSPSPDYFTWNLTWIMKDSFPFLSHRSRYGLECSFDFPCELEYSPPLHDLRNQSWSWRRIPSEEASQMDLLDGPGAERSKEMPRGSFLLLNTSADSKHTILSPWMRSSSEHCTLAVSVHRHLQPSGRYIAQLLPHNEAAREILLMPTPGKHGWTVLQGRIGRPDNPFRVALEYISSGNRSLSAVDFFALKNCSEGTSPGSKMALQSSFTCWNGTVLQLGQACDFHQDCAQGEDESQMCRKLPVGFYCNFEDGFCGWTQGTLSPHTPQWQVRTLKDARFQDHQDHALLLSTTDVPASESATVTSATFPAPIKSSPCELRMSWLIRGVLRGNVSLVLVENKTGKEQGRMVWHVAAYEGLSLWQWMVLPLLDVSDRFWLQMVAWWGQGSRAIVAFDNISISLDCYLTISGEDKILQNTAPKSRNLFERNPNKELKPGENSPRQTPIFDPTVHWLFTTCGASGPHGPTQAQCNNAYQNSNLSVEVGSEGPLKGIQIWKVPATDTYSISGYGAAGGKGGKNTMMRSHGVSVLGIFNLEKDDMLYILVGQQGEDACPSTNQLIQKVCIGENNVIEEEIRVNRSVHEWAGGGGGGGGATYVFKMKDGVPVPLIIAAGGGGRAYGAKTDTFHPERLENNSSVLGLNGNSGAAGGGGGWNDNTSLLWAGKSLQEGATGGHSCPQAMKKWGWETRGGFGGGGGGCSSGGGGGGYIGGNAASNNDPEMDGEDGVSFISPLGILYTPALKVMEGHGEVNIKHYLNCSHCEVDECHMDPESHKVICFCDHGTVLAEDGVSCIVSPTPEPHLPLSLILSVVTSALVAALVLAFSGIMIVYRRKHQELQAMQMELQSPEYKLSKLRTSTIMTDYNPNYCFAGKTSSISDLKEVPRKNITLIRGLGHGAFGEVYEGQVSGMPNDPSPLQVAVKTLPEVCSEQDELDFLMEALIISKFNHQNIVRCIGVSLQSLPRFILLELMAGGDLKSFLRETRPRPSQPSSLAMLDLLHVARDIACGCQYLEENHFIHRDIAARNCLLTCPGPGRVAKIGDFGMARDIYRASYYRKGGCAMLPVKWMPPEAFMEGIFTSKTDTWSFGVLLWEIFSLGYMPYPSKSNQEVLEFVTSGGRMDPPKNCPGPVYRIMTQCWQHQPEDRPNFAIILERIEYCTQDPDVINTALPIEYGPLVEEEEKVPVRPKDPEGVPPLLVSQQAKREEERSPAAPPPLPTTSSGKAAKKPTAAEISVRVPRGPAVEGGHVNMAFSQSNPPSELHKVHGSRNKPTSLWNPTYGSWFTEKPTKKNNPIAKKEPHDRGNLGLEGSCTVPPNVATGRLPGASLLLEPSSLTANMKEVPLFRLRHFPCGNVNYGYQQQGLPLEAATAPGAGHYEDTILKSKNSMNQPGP
Description: Materials: Recombinant Human Anaplastic Lymphoma Kinase was purchased from Invitrogen, Carlsbad, Calif. Peptide substrate (Biotin-[…]-amide) was custom synthesized at EZBiolab, Westfield, Ind. Streptavidin conjugated SureLight-Allophycocyania and LANCE Eu-W1024 labeled anti-phosphotyrosine antibody were from Perkin-Elmer, Boston, Mass. Microplates were from Corning Inc., Acton, Mass. All other reagents were from Sigma, St. Louis, Mo.
Plates were read in Fusion α-FP instrument (Perkin-Elmer). […] Signal=Bottom+(Top−Bottom)/(1+10^((Log(IC50)−Log [I])*Hill Slope) Bottom and Top refer to the post and pre-transition baselines, respectively.

[5] = target: TYK2 (Homo sapiens, UniProt P29597); experiment: TYK2 kinase inhibition (Table A1); settings: Table B1
Sequence of TYK2 (P29597 whole entry): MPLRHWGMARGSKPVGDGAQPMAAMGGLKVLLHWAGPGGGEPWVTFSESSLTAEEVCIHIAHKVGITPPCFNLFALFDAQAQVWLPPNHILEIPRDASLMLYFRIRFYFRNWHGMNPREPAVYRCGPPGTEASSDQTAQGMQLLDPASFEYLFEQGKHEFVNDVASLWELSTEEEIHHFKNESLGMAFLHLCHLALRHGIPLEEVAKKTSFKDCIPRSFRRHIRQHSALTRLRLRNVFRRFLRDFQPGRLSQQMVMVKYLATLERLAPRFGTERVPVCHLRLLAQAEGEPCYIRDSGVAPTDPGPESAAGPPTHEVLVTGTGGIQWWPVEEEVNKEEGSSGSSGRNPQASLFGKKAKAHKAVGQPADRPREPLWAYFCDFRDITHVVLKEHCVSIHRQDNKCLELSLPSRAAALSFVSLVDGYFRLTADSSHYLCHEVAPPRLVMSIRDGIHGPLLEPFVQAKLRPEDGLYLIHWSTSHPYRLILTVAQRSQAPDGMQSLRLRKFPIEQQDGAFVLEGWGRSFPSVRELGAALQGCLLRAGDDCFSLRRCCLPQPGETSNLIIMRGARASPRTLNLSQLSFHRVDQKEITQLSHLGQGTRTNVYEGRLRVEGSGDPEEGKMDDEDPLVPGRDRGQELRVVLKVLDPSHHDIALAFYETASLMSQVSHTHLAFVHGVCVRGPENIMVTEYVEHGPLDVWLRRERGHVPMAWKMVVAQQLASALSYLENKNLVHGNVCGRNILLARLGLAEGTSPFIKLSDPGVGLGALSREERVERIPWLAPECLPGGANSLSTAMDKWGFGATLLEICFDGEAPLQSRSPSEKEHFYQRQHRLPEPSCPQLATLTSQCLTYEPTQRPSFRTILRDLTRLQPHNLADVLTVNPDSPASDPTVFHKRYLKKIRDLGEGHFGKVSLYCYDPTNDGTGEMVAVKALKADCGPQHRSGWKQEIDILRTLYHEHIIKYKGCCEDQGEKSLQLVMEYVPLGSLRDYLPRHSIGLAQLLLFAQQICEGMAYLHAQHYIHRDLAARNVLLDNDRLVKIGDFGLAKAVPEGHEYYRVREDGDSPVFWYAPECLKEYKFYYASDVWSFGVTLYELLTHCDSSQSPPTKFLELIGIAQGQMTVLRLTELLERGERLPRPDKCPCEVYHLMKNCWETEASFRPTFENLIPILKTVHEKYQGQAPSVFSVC

[6] = method AA1 (90 μM ATP) or AA2 (1000 μM ATP), not stated per value
[7] = method AA1 (30 μM ATP) or AA2 (1000 μM ATP), not stated per value
[8] = method AA1 (3 μM ATP) or AA2 (1000 μM ATP), not stated per value
[9] = compound at 500 nM or 1 mM, 90 μM ATP
[10] = Table B1, cells without percent sign
[11] = compound at a concentration of 500 nM or 1 mM (not specified), cells shown as percentage

Structure (SMILES)	IC50 [1, 6] [nM]	IC50 [2, 7] [nM]	ALK % of inhibition at a concentration of 500 nM or 1 mM [4, 9] [%]	IC50 ([1]; Table B1) [nM]	IC50 ([2]; Table B1) [nM]	IC50 [5] [nM]	further results
CC(C)(C)OC(=O)N1CCN(C(=O)COc2ccc3cc2CCc2cccc(c2)Nc2ncc(Cl)c(n2)N3)CC1 [Example A17, tert-Butyl 4-({[6-chloro-2,4,8,22-tetraazatetracyclo[14.3.1.1(3,7).1(9,13)]docosa-1(20),3(22),4,6,9(21),10,12,16,18-nonaen-12-yl]oxy}acetyl)piperazine-1-carboxylate trifluoroacetate]	85	87	7				IC50 [3, 8]: 217 nM
Clc1cnc2nc1Nc1cc(cc(CN3CCN(Cc4ccc(Oc5ncccn5)cc4)CC3)c1)CCc1cccc(c1)N2 [Example B193, 6-Chloro-11-({4-[4-(pyrimidin-2-yloxy)benzyl]piperazin-1-yl}methyl)-2,4,8,22-tetraazatetracyclo[14.3.1.1(3,7).1(9,13)]docosa-1(20),3(22),4,6,9(21),10,12,16,18-nonaene tris(trifluoroacetate)]				55	47	950	IC50 [4, 10]: > 1000 nM
CC(=O)NCCNC(=O)Nc1ccc2cc1CCc1cccc(c1)Nc1ncc(Cl)c(n1)N2 [Example B186, N-{2-[({[6-Chloro-2,4,8,22-tetraazatetracyclo[14.3.1.1(3,7).1(9,13)]docosa-1(20),3(22),4,6,9(21),10,12,16,18-nonaen-12-yl]amino}carbonyl)amino]ethyl}acetamide trifluoroacetate]				4	8.2	9.6	ALK % of inhibition at a concentration of 500 nM or 1 mM [4, 11]: 21%
CC(C)(C)OC(=O)N1CCC(NC(=O)Nc2ccc3cc2CCc2cccc(c2)Nc2ncc(Cl)c(n2)N3)CC1 [Example B180, tert-Butyl 4-[({[6-chloro-2,4,8,22-tetraazatetracyclo[14.3.1.1(3,7).1(9,13)]docosa-1(20),3(22),4,6,9(21),10,12,16,18-nonaen-12-yl]amino}carbonyl)amino]piperidine-1-carboxylate]				91	97	450	ALK % of inhibition at a concentration of 500 nM or 1 mM [4, 11]: 3.5%
O=S1(=O)Cc2cccc(c2)Nc2nc(ncc2Cl)Nc2cccc(c2)N1 [Example C8, 6-Chloro-15-thia-2,4,8,16,23-pentaazatetracyclo[15.3.1.1(3,7).1(9,13)]tricosa-1(21),3(23),4,6,9(22),10,12,17,19-nonaene 15,15-dioxide trifluoroacetate]							IC50 [2]: 66 nM; IC50 [3]: 242 nM; IC50 [4]: > 1000 nM
Clc1nccc(N2CCN(Cc3cc4cc(c3)Nc3nc(ncc3Cl)Nc3cccc(c3)CC4)CC2)n1 [Example B218, 6-Chloro-11-{[4-(2-chloropyrimidin-4-yl)piperazin-1-yl]methyl}-2,4,8,22-tetraazatetracyclo[14.3.1.1(3,7).1(9,13)]docosa-1(20),3(22),4,6,9(21),10,12,16,18-nonaene tris(trifluoroacetate)]				164	25	900	IC50 [4, 10]: > 10000 nM
O=S(=O)(Nc1ccc2cc1CCc1cccc(c1)Nc1ncc(Cl)c(n1)N2)c1ccccc1C(F)(F)F [Example B164, N-[6-Chloro-2,4,8,22-tetraazatetracyclo[14.3.1.1(3,7).1(9,13)]docosa-1(20), 3(22),4,6,9(21),10,12,16,18-nonaen-12-yl]-2-(trifluoromethyl)benzenesulfonamide trifluoroacetate]				8	8.4	8.1	ALK % of inhibition at a concentration of 500 nM or 1 mM [4, 11]: 4.6%
Cc1nonc1C(=O)N1CCC(CC(=O)Nc2ccc3cc2CCc2cncc(c2)Nc2ncc(Cl)c(n2)N3)CC1 [Example A166, N-[6-Chloro-2,4,8,18,22-pentaazatetracyclo[14.3.1.1(3,7).1(9,13)]docosa-1(20),3(22),4,6,9(21),10,12,16,18-nonaen-12-yl]-2-{1-[(4-methyl-1,2,5-oxadiazol-3-yl)carbonyl]piperidin-4-yl}acetamide bis(trifluoroacetate)]	6.5	300	32				
Cc1oncc1C(=O)N1CC[C@H](NC(=O)Nc2ccc3cc2CCc2cncc(c2)Nc2ncc(Cl)c(n2)N3)C1 [Example B266, N-[6-Chloro-2,4,8,18,22-pentaazatetracyclo[14.3.1.1(3,7).1(9,13)]docosa-1(20),3(22),4,6,9(21),10,12,16,18-nonaen-12-yl]-N′-{(3S)-1-[(5-methylisoxazol-4-yl)carbonyl]pyrrolidin-3-yl}urea bis(trifluoroacetate)]				17	601	25	ALK % of inhibition at a concentration of 500 nM or 1 mM [4, 11]: 22%
Nc1nonc1C(=O)N1CCC(CC(=O)Nc2ccc3cc2CCc2cncc(c2)Nc2ncc(Cl)c(n2)N3)CC1 [Example A167, 2-{1-[(4-Amino-1,2,5-oxadiazol-3-yl)carbonyl]piperidin-4-yl}-N-[6-chloro-2,4,8,18,22-pentaazatetracyclo[14.3.1.1(3,7).1(9,13)]docosa-1(20),3(22),4,6,9(21),10,12,16,18-nonaen-12-yl]acetamide tris(trifluoroacetate)]	0.6	59	33				
O=C(CC1CCN(c2nccs2)CC1)Nc1ccc2cc1CCc1cncc(c1)Nc1ncc(Cl)c(n1)N2 [Example A159, N-[6-Chloro-2,4,8,18,22-pentaazatetracyclo[14.3.1.1(3,7).1(9,13)]docosa-1(20),3(22),4,6,9(21),10,12,16,18-nonaen-12-yl]-2-[1-(1,3-thiazol-2-yl)piperidin-4-yl]acetamide tris(trifluoroacetate)]	3.6	87	24				
Cc1ccc(C#N)c(N2CCC(CC(=O)Nc3ccc4cc3CCc3cncc(c3)Nc3ncc(Cl)c(n3)N4)CC2)n1 [Example A238, N-[6-Chloro-2,4,8,18,22-pentaazatetracyclo[14.3.1.1(3,7).1(9,13)]docosa-1(20),3(22),4,6,9(21),10,12,16,18-nonaen-12-yl]-2-[1-(3-cyano-6-methylpyridin-2-yl)piperidin-4-yl]acetamide tris(trifluoroacetate)]	18	244	15				IC50 [3, 8]: > 400 nM
Clc1cnc2nc1Nc1cccc(c1)NCc1cccc(c1)N2 [Example D16, 6-Chloro-2,4,8,14,22-pentaazatetracyclo[14.3.1.1(3,7).1(9,13)]docosa-1(20),3(22),4,6,9(21),10,12,16,18-nonaene bis(trifluoroacetate)]							IC50 ([1]; Table D1): 144 nM; IC50 ([2]; Table D1): 113 nM; IC50 ([3]; Table D1): 325 nM; IC50 ([4]; Table D1, 90 μM ATP): > 10000 nM
Cc1occc1C(=O)N1CCC(CC(=O)Nc2ccc3cc2CCc2cncc(c2)Nc2ncc(Cl)c(n2)N3)CC1 [Example A160, N-[6-Chloro-2,4,8,18,22-pentaazatetracyclo[14.3.1.1(3,7).1(9,13)]docosa-1(20),3(22),4,6,9(21),10,12,16,18-nonaen-12-yl]-2-[1-(2-methyl-3-furoyl)piperidin-4-yl]acetamide bis(trifluoroacetate)]	5	271	19				
Cc1ccoc1C(=O)N1CCC(CC(=O)Nc2ccc3cc2CCc2cncc(c2)Nc2ncc(Cl)c(n2)N3)CC1 [Example A161, N-[6-Chloro-2,4,8,18,22-pentaazatetracyclo[14.3.1.1(3,7).1(9,13)]docosa-1(20),3(22),4,6,9(21),10,12,16,18-nonaen-12-yl]-2-[1-(3-methyl-2-furoyl)piperidin-4-yl]acetamide bis(trifluoroacetate)]	15	300	27				
Cn1ccc(C(=O)Nc2cc3cc(c2)Nc2nc(ncc2Cl)Nc2cccc(c2)CC3)n1 [Example B207, N-[6-Chloro-2,4,8,22-tetraazatetracyclo[14.3.1.1(3,7).1(9,13)]docosa-1(20),3(22),4,6,9(21),10,12,16,18-nonaen-11-yl]-1-methyl-1H-pyrazole-3-carboxamide trifluoroacetate]				176	125	700	IC50 [4, 10]: > 10000 nM
